# Results published in US12435072B2, “Compounds” (Vicore Pharma AB, priority 2019, dated 2025).
# What was measured:
# CYP2D6 = target: T1, CYP2D6 (Homo sapiens, UniProt P10635); experiment: CYP inhibition in human liver microsomes, CYP2D6; assay type: in vitro ADME; conditions: probe dextromethorphan, substrate dextromethorphan, read-out: CYP2D6 Inh %
# T1 construct: incubated with human liver microsomes; tissue Eurofins ITEMG232; host or cells: human liver microsomes
# Procedure: (§1) The following substrates were used: CYP1A phenacetin, CYP2B6 bupropion, CYP2C8 paclitaxel and amodiaquine, CYP2C9 diclofenac, CYP2C19 omeprazole, CYP2D6 dextromethorphan, CYP3A midazolam and testosterone. At the end of the incubation, the formation of metabolite was monitored by HPLC-MS/MS as the peak area response.
# CYP1A = target: T2, CYP1A (Homo sapiens, UniProt P05177); experiment: CYP inhibition in human liver microsomes, CYP1A; assay type: in vitro ADME; conditions: probe phenacetin, substrate phenacetin, read-out: CYP1A Inh %
# T2 construct: incubated with human liver microsomes; tissue Eurofins ITEMG232; host or cells: human liver microsomes
# T2 sequence (P05177 1-516): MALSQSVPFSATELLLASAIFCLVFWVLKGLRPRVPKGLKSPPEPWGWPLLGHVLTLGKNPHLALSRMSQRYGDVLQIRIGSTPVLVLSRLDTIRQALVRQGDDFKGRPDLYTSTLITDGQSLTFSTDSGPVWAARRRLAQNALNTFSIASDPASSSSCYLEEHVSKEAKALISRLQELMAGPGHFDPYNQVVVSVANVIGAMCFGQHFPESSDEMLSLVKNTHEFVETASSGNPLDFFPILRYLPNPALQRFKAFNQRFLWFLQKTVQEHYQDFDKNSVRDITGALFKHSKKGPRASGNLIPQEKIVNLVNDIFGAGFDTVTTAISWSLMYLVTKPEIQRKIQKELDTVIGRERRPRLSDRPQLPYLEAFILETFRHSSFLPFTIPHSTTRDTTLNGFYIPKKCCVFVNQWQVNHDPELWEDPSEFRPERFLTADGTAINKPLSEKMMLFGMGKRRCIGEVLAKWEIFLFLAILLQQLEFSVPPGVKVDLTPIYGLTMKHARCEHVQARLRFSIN
# Procedure: as §1
# CYP3A4&5 = experiment: CYP inhibition in human liver microsomes, CYP3A4&5 (testosterone); assay type: in vitro ADME; conditions: probe testosterone, substrate testosterone, read-out: CYP3A4&5 testosterone Inh %
# Procedure: as §1
# CYP2B6 = target: T3, CYP2B6 (Homo sapiens, UniProt P20813); experiment: CYP inhibition in human liver microsomes, CYP2B6; assay type: in vitro ADME; conditions: probe bupropion, substrate bupropion, read-out: CYP2B6 Inh %
# T3 construct: incubated with human liver microsomes; tissue Eurofins ITEMG232; host or cells: human liver microsomes
# T3 sequence (P20813 1-491): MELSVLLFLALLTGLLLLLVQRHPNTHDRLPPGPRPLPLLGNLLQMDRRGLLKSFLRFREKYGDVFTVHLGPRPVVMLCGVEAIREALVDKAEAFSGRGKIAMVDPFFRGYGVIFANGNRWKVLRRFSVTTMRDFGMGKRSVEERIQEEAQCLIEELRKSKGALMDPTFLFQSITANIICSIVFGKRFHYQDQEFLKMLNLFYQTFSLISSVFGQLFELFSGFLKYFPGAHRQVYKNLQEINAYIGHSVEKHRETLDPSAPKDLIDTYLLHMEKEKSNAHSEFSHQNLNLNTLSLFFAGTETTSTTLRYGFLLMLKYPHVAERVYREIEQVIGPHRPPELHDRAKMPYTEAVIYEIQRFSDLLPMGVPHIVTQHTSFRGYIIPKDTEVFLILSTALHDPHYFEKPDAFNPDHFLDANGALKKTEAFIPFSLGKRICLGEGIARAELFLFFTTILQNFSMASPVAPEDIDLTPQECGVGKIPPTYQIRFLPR
# Procedure: as §1
# CYP2C9 = CYP2C9 (Homo sapiens, UniProt P11712); experiment: CYP inhibition in human liver microsomes, CYP2C9; assay type: in vitro ADME; set-up: incubated with human liver microsomes; tissue Eurofins ITEMG232; host or cells: human liver microsomes; conditions: probe diclofenac, substrate diclofenac, read-out: CYP2C9 Inh %
# Procedure: as §1
# [1] = target: T4, human recombinant AT2 receptor (Homo sapiens, UniProt P50052); experiment: Binding to AT2 receptor, radiometric scintillation assay (Eurofins); conditions: ligand 125I CGP 42112A, tested at 1, 10, 100 and 1000 nM
# T4 construct: purchased Eurofins ITEM26
# T4 sequence (P50052 1-363): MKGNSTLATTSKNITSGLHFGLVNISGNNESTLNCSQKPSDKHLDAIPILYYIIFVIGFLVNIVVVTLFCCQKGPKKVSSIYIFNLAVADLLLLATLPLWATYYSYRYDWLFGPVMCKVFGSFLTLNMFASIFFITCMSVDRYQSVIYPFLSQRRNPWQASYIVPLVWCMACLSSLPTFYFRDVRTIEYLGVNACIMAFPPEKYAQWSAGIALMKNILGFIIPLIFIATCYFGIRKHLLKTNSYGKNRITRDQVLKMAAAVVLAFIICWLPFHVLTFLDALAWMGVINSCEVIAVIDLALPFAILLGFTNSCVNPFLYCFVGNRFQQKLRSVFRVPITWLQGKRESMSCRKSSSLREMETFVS
# Procedure: Compounds were evaluated for binding to the human recombinant AT2 and AT1 receptor according to Eurofins protocol ITEM26 and ITEM24 using a radiometric scintillation assay.
# CYP3A4 = CYP3A4 (Homo sapiens, UniProt P08684); experiment: CYP inhibition in human liver microsomes, CYP3A4 (midazolam); assay type: in vitro ADME; set-up: incubated with human liver microsomes; tissue Eurofins ITEMG232; host or cells: human liver microsomes; conditions: probe midazolam, substrate midazolam, read-out: CYP3A4 midazolam Inh %
# Procedure: as §1
# CYP2C8 = target: T5, CYP2C8 (Homo sapiens, UniProt P10632); experiment: CYP inhibition in human liver microsomes, CYP2C8; assay type: in vitro ADME; conditions: probe paclitaxel and amodiaquine, substrate paclitaxel and amodiaquine, read-out: CYP2C8 Inh %
# T5 construct: incubated with human liver microsomes; tissue Eurofins ITEMG232; host or cells: human liver microsomes
# T5 sequence (P10632 1-490): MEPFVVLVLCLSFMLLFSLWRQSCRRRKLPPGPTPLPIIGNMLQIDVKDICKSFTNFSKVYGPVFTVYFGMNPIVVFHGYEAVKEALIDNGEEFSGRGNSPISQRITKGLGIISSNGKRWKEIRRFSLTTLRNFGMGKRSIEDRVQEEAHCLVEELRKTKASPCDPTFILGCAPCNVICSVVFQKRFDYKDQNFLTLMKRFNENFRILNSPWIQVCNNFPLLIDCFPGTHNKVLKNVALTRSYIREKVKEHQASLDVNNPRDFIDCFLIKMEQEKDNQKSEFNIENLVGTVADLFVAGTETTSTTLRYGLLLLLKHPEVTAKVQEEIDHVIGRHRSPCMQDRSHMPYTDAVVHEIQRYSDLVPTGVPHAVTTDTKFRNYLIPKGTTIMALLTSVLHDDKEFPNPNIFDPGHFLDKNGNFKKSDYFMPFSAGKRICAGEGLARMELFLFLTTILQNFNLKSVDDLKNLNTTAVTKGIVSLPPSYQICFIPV
# Procedure: as §1
# CYP2C19 = target: T6, CYP2C19 (Homo sapiens, UniProt P33261); experiment: CYP inhibition in human liver microsomes, CYP2C19; assay type: in vitro ADME; conditions: probe omeprazole, substrate omeprazole, read-out: CYP2C19 Inh %
# T6 construct: incubated with human liver microsomes; tissue Eurofins ITEMG232; host or cells: human liver microsomes
# Procedure: as §1
# T1 sequence (P10635 whole entry): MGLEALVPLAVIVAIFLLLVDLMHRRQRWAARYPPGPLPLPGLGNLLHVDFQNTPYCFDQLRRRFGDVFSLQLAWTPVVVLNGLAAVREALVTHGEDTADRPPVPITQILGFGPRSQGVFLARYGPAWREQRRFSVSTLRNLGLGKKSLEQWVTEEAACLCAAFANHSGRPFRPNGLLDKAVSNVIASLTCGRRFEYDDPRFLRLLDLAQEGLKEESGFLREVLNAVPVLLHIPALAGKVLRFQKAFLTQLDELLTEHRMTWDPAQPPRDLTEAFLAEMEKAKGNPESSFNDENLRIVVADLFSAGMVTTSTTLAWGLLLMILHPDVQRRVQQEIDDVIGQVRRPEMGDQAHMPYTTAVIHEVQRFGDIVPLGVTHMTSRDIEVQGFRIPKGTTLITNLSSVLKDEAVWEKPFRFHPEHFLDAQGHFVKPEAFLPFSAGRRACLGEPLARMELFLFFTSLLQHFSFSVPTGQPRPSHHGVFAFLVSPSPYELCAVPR
# Sequence of CYP2C9 (P11712 whole entry): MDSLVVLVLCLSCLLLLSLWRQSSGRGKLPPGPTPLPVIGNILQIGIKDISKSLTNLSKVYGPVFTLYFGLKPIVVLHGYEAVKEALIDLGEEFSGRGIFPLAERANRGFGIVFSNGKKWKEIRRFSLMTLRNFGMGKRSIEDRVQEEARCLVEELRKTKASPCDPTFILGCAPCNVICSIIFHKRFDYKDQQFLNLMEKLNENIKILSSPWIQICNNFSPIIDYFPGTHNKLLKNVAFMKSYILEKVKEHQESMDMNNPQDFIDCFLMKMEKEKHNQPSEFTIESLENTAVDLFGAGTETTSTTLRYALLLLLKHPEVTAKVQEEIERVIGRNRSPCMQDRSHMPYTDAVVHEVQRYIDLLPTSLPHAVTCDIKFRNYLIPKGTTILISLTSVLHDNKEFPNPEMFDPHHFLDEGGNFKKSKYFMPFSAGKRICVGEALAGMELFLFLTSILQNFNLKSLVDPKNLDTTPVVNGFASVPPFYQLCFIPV
# T6 sequence (P33261 whole entry): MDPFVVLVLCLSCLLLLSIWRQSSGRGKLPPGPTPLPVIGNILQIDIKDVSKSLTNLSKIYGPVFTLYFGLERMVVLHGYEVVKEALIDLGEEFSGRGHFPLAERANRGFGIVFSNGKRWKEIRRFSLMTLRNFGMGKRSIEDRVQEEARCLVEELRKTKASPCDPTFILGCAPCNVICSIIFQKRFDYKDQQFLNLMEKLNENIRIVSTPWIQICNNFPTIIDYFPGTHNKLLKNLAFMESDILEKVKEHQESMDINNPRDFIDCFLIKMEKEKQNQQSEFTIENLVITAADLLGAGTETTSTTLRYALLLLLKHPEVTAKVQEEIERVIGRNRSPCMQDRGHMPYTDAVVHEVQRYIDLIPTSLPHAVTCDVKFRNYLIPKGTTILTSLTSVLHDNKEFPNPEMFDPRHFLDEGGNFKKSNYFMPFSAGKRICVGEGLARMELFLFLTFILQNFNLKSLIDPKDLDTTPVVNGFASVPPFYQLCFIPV
# Sequence of CYP3A4 (P08684 whole entry): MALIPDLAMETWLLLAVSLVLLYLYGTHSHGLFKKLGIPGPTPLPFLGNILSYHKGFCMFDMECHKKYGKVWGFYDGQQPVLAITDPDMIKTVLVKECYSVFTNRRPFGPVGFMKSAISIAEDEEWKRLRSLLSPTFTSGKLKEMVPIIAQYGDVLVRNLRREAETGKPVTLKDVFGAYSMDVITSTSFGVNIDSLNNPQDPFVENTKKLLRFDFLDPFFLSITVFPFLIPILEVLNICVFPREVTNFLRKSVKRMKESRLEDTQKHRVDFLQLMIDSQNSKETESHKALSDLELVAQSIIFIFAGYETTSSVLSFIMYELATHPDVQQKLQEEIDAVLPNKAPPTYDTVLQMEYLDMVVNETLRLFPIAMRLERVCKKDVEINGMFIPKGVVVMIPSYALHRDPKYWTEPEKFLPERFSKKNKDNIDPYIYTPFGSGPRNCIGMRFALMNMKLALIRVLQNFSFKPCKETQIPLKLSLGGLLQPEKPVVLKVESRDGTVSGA
inhibition at 10 µM (CYP2D6),inhibition at 10 µM (CYP1A),inhibition at 10 µM (CYP3A4&5),inhibition at 10 µM (CYP2B6),inhibition at 10 µM (CYP2C9),IC50 [1],inhibition at 10 µM (CYP3A4),inhibition at 10 µM (CYP2C8),inhibition at 10 µM (CYP2C19),SMILES
3.2%,10.6%,3%,-0.4%,10.2%,15.2 nM,10.1%,38.6%,37.9%,"CCc1nccn1Cc1ccc(-c2cc(CC(C)C)sc2S(=O)(=O)NC(=O)NCCOC)cc1 [Example 7, 3-(3-{p-[(2-Ethyl-1H-imidazol-1-yl)methyl]phenyl}-5-isobutyl-2-thienylsulfonyl)-1-(2-methoxy-ethyl)urea]"
8.6%,5%,0.3%,8.2%,30.4%,5.5 nM,22.1%,52.8%,35.4%,"Cc1nccn1Cc1ccc(-c2cc(CC(C)C)sc2S(=O)(=O)NC(=O)NCc2ccccn2)cc1 [Example 2, 3-(5-isobutyl-3-{p-[(2-Methyl-1H-imidazol-1-yl)methyl]phenyl}-2-thienylsulfonyl)-1-[(2-pyridyl)methyl]urea]"
12%,16%,9%,3%,32%,0.53 nM,80%,77%,40%,"Cc1nccn1Cc1ccc(-c2cc(CC(C)C)sc2S(=O)(=O)NC(=O)NCc2ccccn2)cc1F [Example 13, 3-(3-{3-Fluoro-4-[(2-methyl-1H-imidazol-1-yl)methyl]phenyl}-5-isobutyl-2-thienylsulfonyl)-1-[(2-pyridyl)methyl]urea]"
53%,20%,12%,63%,30%,4.9 nM,38%,48%,73%,"Cc1nccn1Cc1ccc(-c2cc(CC(C)C)sc2S(=O)(=O)NC(=O)NCc2nccn2C)cc1F [Example 15, 1-(3-{3-Fluoro-4-[(2-methyl-1H-imidazol-1-yl)methyl]phenyl}-5-isobutyl-2-thienylsulfonyl)-3-[(1-methyl-1H-imidazol-2-yl)methyl]urea]"
19%,13%,13%,25%,48%,16.6 nM,22%,62%,58%,"Cc1nccn1Cc1ccc(-c2cc(CC(C)C)sc2S(=O)(=O)NC(=O)NCc2cc(Cl)ccn2)cc1F.O=C(O)C(F)(F)F [Example 38, 1-[(4-chloropyridin-2-yl)methyl]-3-[(3-{3-fluoro-4-[(2-methyl-1H-imidazol-1-yl)methyl]phenyl}-5-(2-methylpropyl)thiophen-2-yl)sulfonyl]urea trifluoroacetic acid]"
16%,8%,15%,23%,50%,2.5 nM,16%,56%,56%,"Cc1nccn1Cc1ccc(-c2cc(CC(C)C)sc2S(=O)(=O)NC(=O)NC(C)c2ccccn2)cc1F (stereo not drawn) [Example 25, 3-(3-{3-Fluoro-4-[(2-methyl-1H-imidazol-1-yl)methyl]phenyl}-5-isobutyl-2-thienylsulfonyl)-1-[1-(2-pyridyl)ethyl]urea]"
45%,20%,25%,46%,71%,0.63 nM,26%,56%,60%,"Cc1nccn1Cc1ccc(-c2cc(CC(C)C)sc2S(=O)(=O)NC(=O)NCc2cccs2)cc1F.O=C(O)C(F)(F)F [Example 35, 1-[(3-{3-fluoro-4-[(2-methyl-1H-imidazol-1-yl)methyl]phenyl}-5-(2-methylpropyl)thiophen-2-yl)sulfonyl]-3-[(thiophen-2-yl)methyl]urea trifluoroacetic acid]"
